Legend:
Assay type in all cases: cell-based
[1] = system: Bel-7404 (human liver carcinoma); test: MTT antiproliferative/cytotoxicity assay, Bel-7404; conditions: mean of three independent determinations
Experimental: (§1) Melting points were determined on an X4 apparatus (Beijing Tech Instrument Co. Ltd., Beijing, China) and were uncorrected. The ^1H and ^13C NMR spectra were recorded in CDCl3 on a Bruker AV-600 spectrometer at working frequencies of 600 and 150 MHz and a Bruker AV-300 spectrometer at working frequencies of 300 and 75 MHz, respectively. Chemical shifts are expressed in parts per million (δ) values and coupling constants (J) in Hertz. Infrared spectra were measured with a Thermo Scientific Nicolet IS-10 Spectrophotometer (Thermo Scientific, USA). HREIMS was measured on an Agilent 6210 TOFMS instrument (Agilent Technologies, USA). The cell proliferation assay was undertaken by a MTT method using 96-well plates on a […] MK3 analysis spectrometer (Thermo Scientific, Shanghai, China).
(§2) The detailed procedure had been reported in our previous work.

[2] = system: HeLa (human cervical carcinoma); test: MTT antiproliferative/cytotoxicity assay, HeLa; conditions: mean of three independent determinations
Experimental: as §1, §2

[3] = MTT cytotoxicity assay, 293T normal cells; conditions: human, HEK-293T normal kidney epithelial cells, mean of three independent determinations
Experimental: as §1, §2

SMILES	IC50 [1] [µM]	IC50 [2] [µM]	IC50 [3] [µM]
CC(=O)Oc1ccc2c(c1)CCC1C2CCC2(C)C(=NNC(N)=S)CCC12 (centres unmarked) [Compound 2]	> 200	42	> 200
CC12CCC3c4ccc(O)cc4CCC3C1CCC2=NNC(N)=S (centres unmarked) [Compound 1]	19	34	
